Results taken from US7947709B2, “Non-nucleoside reverse transcriptase inhibitors” (Roche Palo Alto LLC, priority 2007, dated 2011).
Where two headings read alike, the source gives them in different places.

How the values were obtained:
[1] = target: T1, HIV-1 RT (Human immunodeficiency virus type 1 group M subtype B, UniProt P04585); assay: HIV-1 Reverse Transcriptase Assay (RNA-dependent DNA polymerase activity, SPA); assay type: biochemical
T1 construct: HIV-1 RT enzyme (final concentrations of 1-3 nM)
Protocol: HIV-1 Reverse Transcriptase Assay
RNA-dependent DNA polymerase activity was measured using a biotinylated primer oligonucleotide and tritiated dNTP substrate. Newly synthesized DNA was quantified by capturing the biotinylated primer molecules on streptavidin coated Scintillation Proximity Assay (SPA) beads (Amersham). The sequences of the polymerase assay substrate were: 18 nt DNA primer, 5′-Biotin/GTC CCT GTT CGG GCG CCA-3′; 47 nt RNA template, 5′-GGGUCUCUCUGGUUAGACCACUCUAGCAGUGGCGCCCGAACAGGGAC-3′. The biotinylated DNA primer was obtained from the Integrated DNA Technologies Inc. and the RNA template was synthesized by Dharmacon. The DNA polymerase assay (final volume 50 μl) contained 32 nM biotinylated DNA primer, 64 nM RNA substrate, dGTP, dCTP, dTTP (each at 5 μM), 103 nM [^3H]-dATP (specific activity=[…]), in 45 mM Tris-HCl, pH 8.0, 45 mM NaCl, 2.7 mM Mg(CH3COO)2, 0.045% Triton X-100 w/v, 0.9 mM EDTA. The reations contained 5 ul of serial compound dilutions in 100% DMSO for IC50 determination and the final concentrations of DMSO were 10%. Reactions were initiated by the addition of 30 μl of the HIV-1 RT enzyme (final concentrations of 1-3 nM). Protein concentrations were adjusted to provide linear product formation for at least 30 min of incubation. After incubation at 30° C. for 30 min, the reaction was quenched by addition of 50 μl of 200 mM EDTA (pH 8.0) and 2 mg/ml SA-PVT SPA beads (Amersham, RPNQ0009, reconstituted in 20 mM Tris-HCl, pH 8.0, 100 mM EDTA and 1% BSA). The beads were left to settle overnight and the SPA signals were counted in a 96-well top counter-NXT (Packard). IC50 values were obtained by sigmoidal regression analysis using GraphPad.

[2] = tested on: HXB2-strain of HIV-1 in MT4 cells; assay: Antiviral Assay (protection of HIV-1-infected MT4 cells from cell death, MTT); assay type: cell-based; conditions: Human immunodeficiency virus 1, 120 h, MT4 cells infected with HXB2-strain of HIV-1, 5 days
Protocol: Anti-HIV-1 antiviral activity was assessed using an adaptation of the method of Pauwels et al. (Pauwels et al., J Virol Methods 1988 20:309-321). The method is based on the ability of compounds to protect HIV-1-infected T lymphoblastoid cells (MT4 cells) from cell-death mediated by the infection. The endpoint of the assay was calculated as the concentration of compound at which the cell viability of the culture was preserved by 50% (‘50% inhibitory concentration’, IC50). The cell viability of a culture was determined by the uptake of soluble, yellow 3-[4,5-dimethylthiazol-2-yl]-2,5-diphenyltetrazolium bromide (MTT) and its reduction to a purple insoluble formazan salt. After solubilization, spectrophotometric methods were employed to measure the amount of formazan product. […]
A fresh solution of 5 mg/mL MTT was prepared in 0.01 M phosphate buffered saline, pH 7.2 and 20 microliters added to each culture. […] When the formazan deposit was fully solubilized by further mixing, the absorbance (OD) of the cultures was measured at 540 nm and 690 nm wavelength (690 nm readings were used as blanks for artifacts between wells). The percent protection for each treated culture was then calculated from the equation: […]

[3] = HIV-1 RT enzyme 1-3 nM, 30° C., 30 min, read-out: HIV-1 RT IC50

Structure (SMILES)	melting point	IC50 [1, 3]	IC50 [2]	IC50 [1]
N#Cc1cc(Cl)cc(Oc2c(Br)ccc(Cn3c(=O)[nH]c4ccccc43)c2F)c1 [Compound I-1, 3-[6-Bromo-2-fluoro-3-(2-oxo-2,3-dihydro-benzoimidazol-1-ylmethyl)-phenoxy]-5-chloro-benzonitrile]	227 to 229 °C	12.2 nM		
N#Cc1cc(Cl)cc(Oc2c(Br)ccc(Cn3c(=O)[nH]c4ncccc43)c2F)c1 [Compound I-2, 3-[6-Bromo-2-fluoro-3-(2-oxo-2,3-dihydro-imidazo[4,5-b]pyridin-1-ylmethyl)-phenoxy]-5-chloro-benzonitrile]	255.5 to 258.5 °C	5.8 nM		
N#Cc1cc(Cl)cc(Oc2c(Br)ccc(Cn3c(=O)[nH]c4c3ccc[n+]4[O-])c2F)c1 [Compound I-3]	259 to 260 °C	15.9 nM		
N#Cc1cc(Cl)cc(Oc2c(Br)ccc(Cn3c(=O)[nH]c4cnccc43)c2F)c1 [Compound I-4, 3-[6-Bromo-2-fluoro-3-(2-oxo-2,3-dihydro-imidazo[4,5-c]pyridin-1-ylmethyl)-phenoxy]-5-chloro-benzonitrile]	219 to 221.5 °C		0.4 nM	5 nM
N#Cc1cc(Cl)cc(Oc2c(Br)ccc(Cn3c(=O)[nH]c4c[n+]([O-])ccc43)c2F)c1 [Compound I-5]	226.8 to 229 °C	492 nM		
N#Cc1cc(Cl)cc(Oc2c(Cl)ccc(Cn3c(=O)[nH]c4cnccc43)c2F)c1 [Compound I-6, 3-Chloro-5-[6-chloro-2-fluoro-3-(2-oxo-2,3-dihydro-imidazo[4,5-c]pyridin-1-ylmethyl)-phenoxy]-benzonitrile]	232 to 233 °C	7 nM		
N#Cc1cc(Cl)cc(Oc2c(Br)ccc(Cn3c(=O)[nH]c4nnccc43)c2F)c1 [Compound I-7, 3-[6-Bromo-2-fluoro-3-(6-oxo-6,7-dihydro-imidazo[4,5-c]pyridazin-5-ylmethyl)-phenoxy]-5-chloro-benzonitrile]		5.1 nM		
N#Cc1cc(Cl)cc(Oc2c(Br)ccc(Cn3cn[nH]c3=O)c2F)c1 [Compound I-8, 3-[6-Bromo-2-fluoro-3-(5-oxo-1,5-dihydro-[1,2,4]triazol-4-ylmethyl)-phenoxy]-5-chloro-benzonitrile]	107 °C	45.1 nM		
CCc1n[nH]c(=O)n1Cc1ccc(Br)c(Oc2cc(Cl)cc(C#N)c2)c1F [Compound I-9, 3-[6-Bromo-3-(3-ethyl-5-oxo-1,5-dihydro-[1,2,4]triazol-4-ylmethyl)-2-fluoro-phenoxy]-5-chloro-benzonitrile]	264 to 265 °C	19.7 nM		
Cc1n[nH]c(=O)n1Cc1ccc(Br)c(Oc2cc(Cl)cc(C#N)c2)c1F [Compound I-10, 3-[6-Bromo-2-fluoro-3-(3-methyl-5-oxo-1,5-dihydro-[1,2,4]triazol4-ylmethyl)-phenoxy]-5-chloro-benzonitrile]	129.9 to 131 °C	54.6 nM		
N#Cc1cc(Cl)cc(Oc2c(Br)ccc(CNC(=O)Nc3ccccc3F)c2F)c1 [Compound I-11]	215.5 to 215.8 °C	33.1 nM		
N#Cc1cc(Cl)cc(Oc2c(Br)ccc(COC(=O)Nc3ccc(Cl)cc3Cl)c2F)c1 [Compound I-12]	138.3 to 139.9 °C	68.2 nM		
